The text below walks through data of patent US7541368B2, “Pyrazoles as inhibitors of tumor necrosis factor” (Aventis Pharmaceuticals Inc., priority 2003, dated 2009).

The target in assay [1] is T1, Inactive N-terminal His6 tagged murine P38 (Mus musculus, UniProt P47811).
T1 construct: His6 (N); made in house
The assay is described as follows: p38 cascade assay (HTRF; inactive p38 activated by MKK-6, ATF-2 phosphorylation). In kind it is biochemical. As to conditions: inactive p38 preincubated with compound, then MKK-6, ATF-2, ATP; read-out: 50% inhibition in the p38 cascade assay at concentrations within the range. The method, then:
The homogeneous time resolved fluorescence method (HTRF) assay measured the phosphorylation of human activating transcription factor (ATF)-2 protein by P38 following activation by MKK-6 and was run in A384 well plate format. […] MBP-tagged mouse MKK-6 (final concentration 50 nM), GST-tagged ATF-2 (fmal concentration 200 nM) and ATP (final concentration 50 μM) were then added and the incubation continued for 90 min. p38, MKK-6 and ATF-2 were prepared in the Protein Production Group, Aventis Pharmaceuticals. XL665 labeled anti-GST antibody (Cis Bio International) and cryptate labeled anti-pbospho-ATF2 antibody (Cis Bio International) were then added to generate the specific signal proportional to the phosphorylation of the substrate. The close proximity of XL665 labeled anti-GST antibody/phosphorylated GST-ATF2 complex and the cryptate labeled anti-phospho-ATF2 antibody results in a fluorescence transfer from cryptate to XL665. The resulting fluorescence signal was than read on a LJL Acquest set at multi-method mode using a fluorescence filter set (E=360 nm, Em=615/665 nm) with UV dichroic mirror (Integration time: 300000 μs). The results are reported as IC50 values. Compounds were tested over the concentration range of 3×10^−10M to 3×10^−5M.
On the technique in general: Time-resolved FRET reads energy transfer from a long-lived donor to a nearby acceptor.

In assay [2] the test system is TNF-alpha release in THP-1 cells. The assay is described as follows: LPS-induced TNF-alpha release in THP-1 cells. As to conditions: Homo sapiens, THP-1, LPS-stimulated THP-1 cells; read-out: 50% inhibition in the LPS-induced TNF-alpha release in THP-1 cells assay at concentrations within the range. The assay is classed as cell-based. A digest of the protocol:
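Undifferentiated THP-1 monocytes (1×10^6 cells/ml, 1% FCS) preincubated 1 h at 37° C with compound (1×10^−9 to 1×10^−6 M, 0.3% DMSO), then stimulated with LPS (20 μg/ml) for 18 h. Supernatant TNF-alpha measured by sandwich ELISA (TMB read-out), interpolated from a log/log standard curve (0.125-16 ng/ml).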

T1 sequence (P47811 whole entry): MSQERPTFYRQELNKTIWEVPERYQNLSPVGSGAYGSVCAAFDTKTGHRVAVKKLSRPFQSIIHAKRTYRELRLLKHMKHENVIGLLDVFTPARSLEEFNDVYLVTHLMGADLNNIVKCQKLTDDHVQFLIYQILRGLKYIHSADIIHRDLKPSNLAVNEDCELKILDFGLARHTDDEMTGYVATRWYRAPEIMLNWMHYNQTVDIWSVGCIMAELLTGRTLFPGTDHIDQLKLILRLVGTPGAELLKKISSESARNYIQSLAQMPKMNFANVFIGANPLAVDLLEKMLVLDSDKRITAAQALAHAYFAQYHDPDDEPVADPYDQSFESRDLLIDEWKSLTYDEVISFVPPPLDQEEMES

Regarding `Cc1ccc(-n2nc(C(C)(C)C)cc2NC(=O)Nc2ccc(CC3CCN(C(=O)Cc4ccc(F)cc4F)CC3)cc2)cc1` [Compound A217, 1-(5-tert-Butyl-2-p-tolyl-2H-pyrazol-3-yl)-3-(4-{1-[2-(2,4-difluoro-phenyl)-acetyl]-piperidin-4-ylmethyl}-phenyl)-urea], the results for the IC50 in assay [1] and in assay [2] were 0.01 to 0.1 µM and 0.01 to 0.5 µM, respectively.

With `COCC(=O)N1CCC(Cc2cccc(NC(=O)Nc3cc(C(C)(C)C)nn3-c3ccc(C)cc3)c2)CC1` [Compound A173, 1-(5-tert-Butyl-2-p-tolyl-2H-pyrazol-3-yl)-3-{3-[1-(2-methoxy-acetyl)-piperidin-4-ylmethyl]-phenyl}-urea], the IC50 in assay [1] is 0.01 to 0.1 µM; in assay [2] it was 0.01 to 0.5 µM.

With `Cc1ccc(-n2nc(C(C)(C)C)cc2NC(=O)Nc2cccc(CC3CCN(C(=O)c4ccncc4)CC3)c2)cc1` [Compound A170, 1-(5-tert-Butyl-2-p-tolyl-2H-pyrazol-3-yl)-3-{3-[1-(pyridine-4-carbonyl)-piperidin-4-ylmethyl]-phenyl}-urea], the IC50 in assay [1] lay within 0.01 to 0.1 µM; in assay [2], 0.01 to 0.5 µM.

On to `Cc1ccc(-n2nc(C(C)(C)C)cc2NC(=O)Nc2ccc(CC3CCN(C(=O)c4sc(C)nc4C)CC3)cc2)cc1` [Compound A219, 1-(5-tert-Butyl-2-p-tolyl-2H-pyrazol-3-yl)-3-{4-[1-(2,4-dimethyl-thiazole-5-carbonyl)-piperidin-4-ylmethyl]-phenyl}-urea], for which the values for the IC50 in assay [1] and in assay [2] were 0.01 to 0.1 µM and 0.01 to 0.5 µM, respectively.

For `Cc1ccc(-n2nc(C(C)(C)C)cc2NC(=O)Nc2ccc(CC3CCN(C(=O)c4ccncc4)CC3)cc2)cc1` [Compound A364, 1-(5-tert-Butyl-2-p-tolyl-2H-pyrazol-3-yl)-3-{4-[1-(pyridine-4-carbonyl)-piperidin-4-ylmethyl]-phenyl}-urea], the IC50 in assay [1] is 0.01 to 0.1 µM; in assay [2], 0.01 to 0.5 µM.

Take `COc1ccc(OC)c(C(=O)N2CCC(Cc3cccc(NC(=O)Nc4cc(C(C)(C)C)nn4-c4ccc(C)cc4)c3)CC2)c1` [Compound A1636, 1-(5-tert-Butyl-2-p-tolyl-2H-pyrazol-3-yl)-3-{3-[1-(2,5-dimethoxy-benzoyl)-piperidin-4-ylmethyl]-phenyl}-urea]: the IC50 fell in the range of 0.01 to 0.1 µM in assay [1] and 0.01 to 0.5 µM in assay [2].

As to `Cc1ccc(-n2nc(C(C)(C)C)cc2NC(=O)Nc2ccc(CC3CCN(C(=O)c4ccsc4)CC3)cc2)cc1` [Compound A294, 1-(5-tert-Butyl-2-p-tolyl-2H-pyrazol-3-yl)-3-{4-[1-(thiophene-3-carbonyl)-piperidin-4-ylmethyl]-phenyl}-urea], the IC50 in assay [1] fell in the range of 0.01 to 0.1 µM; in assay [2] it was 0.01 to 0.5 µM.

Consider `Cc1ccc(-n2nc(C(C)(C)C)cc2NC(=O)Nc2ccc(CC3CCN(S(C)(=O)=O)CC3)cc2)cc1` [Compound A608, 1-(5-tert-Butyl-2-p-tolyl-2H-pyrazol-3-yl)-3-[4-(1-methanesulfonyl-piperidin-4-ylmethyl)-phenyl]-urea], for which the values for the IC50 in assay [1] and in assay [2] were 0.01 to 0.1 µM and 0.01 to 0.5 µM, respectively.

As to `Cc1ccc(-n2nc(C(C)(C)C)cc2NC(=O)Nc2ccc(CC3CCN(C(=O)OCc4ccccc4)CC3)cc2)cc1` [Compound A1610, 4-{4-[3-(5-tert-Butyl-2-p-tolyl-2H-pyrazol-3-yl)-ureido]-benzyl}-piperidine-1-carboxylic acid benzyl ester], the IC50 lay within 0.01 to 0.1 µM in assay [1] and 0.01 to 0.5 µM in assay [2].

In the case of `Cc1ccc(-n2nc(C(C)(C)C)cc2NC(=O)Nc2ccc(CC3CCN(C(=O)CNC(=O)c4ccccc4)CC3)cc2)cc1` [Compound A352, N-[2-(4-{4-[3-(5-tert-Butyl-2-p-tolyl-2H-pyrazol-3-yl)-ureido]-benzyl}-piperidin-1-yl)-2-oxo-ethyl]-benzamide], the IC50 was in the range of 0.01 to 0.1 µM in assay [1] and 0.01 to 0.5 µM in assay [2].

Take `Cc1ccc(-n2nc(C(C)(C)C)cc2NC(=O)Nc2ccc(CC3CCN(C(=O)c4cccnc4)CC3)cc2)cc1` [Compound A377, 1-(5-tert-Butyl-2-p-tolyl-2H-pyrazol-3-yl)-3-{4-[1-(pyridine-3-carbonyl)-piperidin-4-ylmethyl]-phenyl}-urea]: the IC50 in assay [1] lay within 0.01 to 0.1 µM; in assay [2], 0.01 to 0.5 µM.
